Results on 16 molecules are retold here after US10308644B2, “Heterocyclic compounds as immunomodulators” (Incyte Corporation, priority 2016, dated 2019).

pIC50: −log10 of the molar value. Where only a bound is given, the exact number is not on record here.

This experiment deals with PD-1/PD-L1 (Homo sapiens (Human), UniProt Q9NZQ7). Nature of the experiment: PD-1/PD-L1 Homogeneous Time-Resolved Fluorescence (HTRF) Binding Assay. Particulars: recombinant human PD-1 (3 nM) and PD-L1 (10 nM), 25° C., PBS pH 7.4. Summed up: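 Fc-tagged human PD-1 (25-167, 3 nM) and His-tagged PD-L1 (19-238, 10 nM) preincubated with inhibitor 40 min in PBS pH 7.4, 0.05% Tween-20, 0.1% BSA, 1% DMSO, 25 °C. Binding detected by HTRF (Eu anti-IgG/APC anti-His, 665/620 nm) after 60 min; IC50 from percent control activity.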
Chain of PD-1/PD-L1 (Q9NZQ7 19-238): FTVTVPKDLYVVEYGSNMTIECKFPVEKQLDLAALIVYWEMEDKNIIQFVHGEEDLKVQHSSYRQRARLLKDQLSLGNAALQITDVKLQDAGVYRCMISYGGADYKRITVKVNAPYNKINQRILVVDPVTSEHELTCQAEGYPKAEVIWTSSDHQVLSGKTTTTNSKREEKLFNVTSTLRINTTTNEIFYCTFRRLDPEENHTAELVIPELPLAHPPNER
(In general: TR-FRET usually uses a lanthanide donor and a delayed reading to cut background.)

Consider `Cc1c(Nc2nccc3cc(CN4CC[C@H](O)C4)cnc23)cccc1-c1cccc(-c2nc3cc(CN4CCCC[C@H]4C(=O)O)cc(Cl)c3o2)c1C` [Example 5, (S)-1-((7-chloro-2-(3′-((3-(((S)-3-hydroxypyrrolidin-1-yl)methyl)-1,7-naphthyridin-8-yl)amino)-2,2′-dimethyl-[1,1′-biphenyl]-3-yl)benzo[d]oxazol-5-yl)methyl)piperidine-2-carboxylic acid], for which the negative logarithm of the IC50 (pIC50) is at least 8.00.
Consider `Cc1c(Nc2nccc3cc(CN4CC[C@H](O)C4)cnc23)cccc1-c1cccc(-c2nc3cc(CN4CC(C(=O)O)C4)cc(Cl)c3o2)c1C` [Example 23, (S)-1-((7-chloro-2-(3′-(3-((3-hydroxypyrrolidin-1-yl)methyl)-1,7-naphthyridin-8-ylamino)-2,2′-dimethylbiphenyl-3-yl)benzo[d]oxazol-5-yl)methyl)azetidine-3-carboxylic acid], for which the negative logarithm of the IC50 (pIC50) was at least 8.00.
As to `Cc1c(-c2nc3cc(CN4CC[C@H](C(=O)O)C4)cc(C#N)c3o2)cccc1-c1cccc(NC(=O)c2nc3c(n2C)CN(C)C3)c1Cl` [Example 94, (S)-1-((2-(2′-chloro-3′-(1,5-dimethyl-1,4,5,6-tetrahydropyrrolo[3,4-d]imidazole-2-carboxamido)-2-methylbiphenyl-3-yl)-7-cyanobenzo[d]oxazol-5-yl)methyl)pyrrolidine-3-carboxylic acid], the pIC50 is at least 8.00.
Consider `Cc1c(Nc2nccc3cc(CN4CCC(C(=O)O)CC4)cnc23)cccc1-c1cccc(-c2nc3cc(CN[C@@H](C)CO)cc(C#N)c3o2)c1C` [Example 213, (S)-1-((8-(3′-(7-cyano-5-((1-hydroxypropan-2-ylamino)methyl)benzo[d]oxazol-2-yl)-2,2′-dimethylbiphenyl-3-ylamino)1,7-naphthyridin-3-yl)methyl)piperidine-4-carboxylic acid], for which the pIC50 was at least 8.00.
Regarding `Cc1c(Nc2nccc3cc(CN4CC[C@H](O)C4)cnc23)cccc1-c1cccc(-c2nc3cc(CN4CC[C@H](C(=O)O)C4)cc(C#N)c3o2)c1C` [Example 25, (S)-1-((7-cyano-2-(3′-(3-(((S)-3-hydroxypyrrolidin-1-yl)methyl)-1,7-naphthyridin-8-ylamino)-2,2′-dimethylbiphenyl-3-yl)benzo[d]oxazol-5-yl)methyl)pyrrolidine-3-carboxylic acid], the pIC50 is at least 8.00.
The figure for `Cc1c(-c2nc3cc(CN4CCC(C(=O)O)CC4)cc(C#N)c3o2)cccc1-c1cccc(NC(=O)c2nc3c(n2C)CCN(C)C3)c1Cl` [Example 89, 1-((2-(2′-chloro-3′-(1,5-dimethyl-4,5,6,7-tetrahydro-1H-imidazo[4,5-c]pyridine-2-carboxamido)-2-methylbiphenyl-3-yl)-7-cyanobenzo[d]oxazol-5-yl)methyl)piperidine-4-carboxylic acid] is at least 8.00; for `Cc1c(Nc2nccc3cc(CN4CCC(C(=O)O)CC4)cnc23)cccc1-c1cccc(-c2nc3cc(CNC[C@H](C)O)cc(C#N)c3o2)c1C` [Example 212, (S)-1-((8-(3′-(7-cyano-5-((2-hydroxypropylamino)methyl)benzo[d]oxazol-2-yl)-2,2′-dimethylbiphenyl-3-ylamino)-1,7-naphthyridin-3-yl)methyl)piperidine-4-carboxylic acid] it is at least 8.00.
The figure for `Cc1c(Nc2nccc3cc(CN4CC[C@H](O)C4)cnc23)cccc1-c1cccc(-c2nc3cc(CN4CC[C@@H](C(=O)O)C4)cc(C#N)c3o2)c1C` [Example 26, (R)-1-((7-cyano-2-(3′-(3-(((S)-3-hydroxypyrrolidin-1-yl)methyl)-1,7-naphthyridin-8-ylamino)-2,2′-dimethylbiphenyl-3-yl)benzo[d]oxazol-5-yl)methyl)pyrrolidine-3-carboxylic acid] is at least 8.00; for `Cc1c(Nc2nccc3cc(CN4CC[C@@H](O)C4)cnc23)cccc1-c1cccc(-c2nc3cc(CN[C@H]4CC[C@H](CC(=O)O)CC4)cc(C#N)c3o2)c1C` [Example 184, 2-(trans-4-((7-cyano-2-(3′-(3-(((R)-3-hydroxypyrrolidin-1-yl)methyl)-1,7-naphthyridin-8-ylamino)-2,2′-dimethylbiphenyl-3-yl)benzo[d]oxazol-5-yl)methylamino)cyclohexyl)acetic acid] it is at least 8.00; for `CCN(C)CC(=O)N1Cc2nc(-c3cccc(-c4cccc(-c5nc6cc(CN7CC[C@@H](C(=O)O)C7)cc(C#N)c6o5)c4C)c3C)sc2C1` [Example 114, (R)-1-((7-cyano-2-(3′-(5-(2-(ethyl(methyl)amino)acetyl)-5,6-dihydro-4H-pyrrolo[3,4-d]thiazol-2-yl)-2,2′-dimethylbiphenyl-3-yl)benzo[d]oxazol-5-yl)methyl)pyrrolidine-3-carboxylic acid] it is at least 8.00.
For the molecule `Cc1c(-c2nc3cc(CN4CC[C@@H](C(=O)O)C4)cc(C#N)c3o2)cccc1-c1cccc(-c2nc3c(s2)CN(C(C)CO)CC3)c1C` (stereo partly drawn) [Example 66, (3R)-1-((7-cyano-2-(3′-(5-(1-hydroxypropan-2-yl)-4,5,6,7-tetrahydrothiazolo[5,4-c]pyridin-2-yl)-2,2′-dimethyl-[1,1′-biphenyl]-3-yl)benzo[d]oxazol-5-yl)methyl)pyrrolidine-3-carboxylic acid], the pIC50 was at least 8.00.
Consider `Cc1c(Nc2nccc3cc(CN4CC[C@@H](O)C4)cnc23)cccc1-c1cccc(-c2nc3cc(CNCC(C)(C)C(=O)O)cc(C#N)c3o2)c1C` [Example 86, (R)-3-((7-cyano-2-(3′-(3-((3-hydroxypyrrolidin-1-yl)methyl)-1,7-naphthyridin-8-ylamino)-2,2′-dimethylbiphenyl-3-yl)benzo[d]oxazol-5-yl)methylamino)-2,2-dimethylpropanoic acid], for which the pIC50 was at least 8.00.
Regarding `Cc1c(-c2nc3cc(CN4CC[C@@H](C(=O)O)C4)cc(C#N)c3o2)cccc1-c1cccc(-c2nc3c(s2)CN(C(C)C)CC3)c1C` [Example 63, (R)-1-((7-cyano-2-(3′-(5-isopropyl-4,5,6,7-tetrahydrothiazolo[5,4-c]pyridin-2-yl)-2,2′-dimethyl-[1,1′-biphenyl]-3-yl)benzo[d]oxazol-5-yl)methyl)pyrrolidine-3-carboxylic acid], the pIC50 was at least 8.00.
The figure for `Cc1c(-c2nc3cc(CN4CC[C@@H](C(=O)O)C4)cc(C#N)c3o2)cccc1-c1cccc(Nc2nccc3cc(CN4CCOC4=O)cnc23)c1Cl` [Example 31, (R)-1-((2-(2′-chloro-2-methyl-3′-(3-((2-oxooxazolidin-3-yl)methyl)-1,7-naphthyridin-8-ylamino)biphenyl-3-yl)-7-cyanobenzo[d]oxazol-5-yl)methyl)pyrrolidine-3-carboxylic acid] is at least 8.00; for `Cc1c(Nc2nccc3nccnc23)cccc1-c1cccc(-c2nc3cc(CN4CC[C@@H](C(=O)O)C4)cc(C#N)c3o2)c1C` [Example 12, (R)-1-((7-cyano-2-(2,2′-dimethyl-3′-(pyrido[4,3-b]pyrazin-5-ylamino)biphenyl-3-yl)benzo[d]oxazol-5-yl)methyl)pyrrolidine-3-carboxylic acid] it is at least 8.00.
The figure for `Cc1c(Nc2ncnc3cc(CN4CC[C@@H](O)C4)cnc23)cccc1-c1cccc(-c2nc3cc(CN4CCC(C(=O)O)CC4)cc(C#N)c3o2)c1C` [Example 207, (R)-1-((7-cyano-2-(3′-(7-((3-hydroxypyrrolidin-1-yl)methyl)pyrido [3,2-d]pyrimidin-4-ylamino)-2,2′-dimethylbiphenyl-3-yl)benzo[d]oxazol-5-yl)methyl)piperidine-4-carboxylic acid] is at least 8.00.

One may read the pIC50 as the IC50 on a negative log10 scale, so that one unit is a factor of ten.
